According to patent US10703751B2, “Amino-imidazopyridine derivatives as Janus kinase inhibitors and pharmaceutical use thereof” (LEO Pharma A/S, priority 2017, dated 2020):
Read-outs that look alike come from different tables or passages of the source.

Assays:
CYP [1] = assay: Reversible CYP inhibition, overall statement; assay type: in vitro ADME; conditions: substrate concentrations up to 50 μM
Method: (§1) Reversible CYP inhibition, time dependent CYP inhibition (TDI) and CYP induction was tested at Cyprotex PLC according to authority guidance.

CYP3A4 = assay: CYP induction, CYP3A4 mRNA expression; assay type: in vitro ADME; conditions: human, mean fold shift compared to vehicle, read-out: Fold shift in mRNA expr. (CYP 3A4)
Method: as §1
(§2) Induction of CYP1A2, CYP2B6 and CYP3A4 gene expression can serve as sensitive representative endpoints for activation of aryl hydrocarbon receptor (AhR), […], respectively. Induction of these nuclear receptors was assessed by measuring the increase in mRNA encoding for […], respectively, at relevant concentrations.
(§3) A >2-fold shift indicate CYP Induction.

CYP3A4 gene expression = assay: CYP induction, CYP3A4 mRNA expression; assay type: in vitro ADME
Method: as §1, §2, §3

JAK2 = JAK2 (Homo sapiens (Human), UniProt O60674); assay: JAK2 kinase assay (HTRF); assay type: biochemical; conditions: ATP at Km (4 μM)
Method: (§4) Human baculovirus-expressed Janus kinase (JAK) 1, 2, 3 and tyrosin kinase (TYK) 2 were purchased from Carna Biosciences, Inc (#08-144, -045, -046, -147 resp.). All four purified enzymes contain only the catalytic domain. JAK1 (aa 850-1154) and TYK2 (aa 871-1187) are expressed with an N-terminally fused GST-tag, and JAK2 and JAK3 with an N-terminally fused His-tag. Inhibition of phosphorylation of a synthetic peptide was measured in an HTRF-based assay (CisBio #62TKOPEC). First, 75 nL of test compound solution (100% DMSO) was added to a white shallow 384-well plate (NUNC #264706) using a Labcyte ECHO 550 liquid handler. Thereafter, 1 μL of compound dilution buffer (50 mM HEPES, 0.05% bovine serum albumin) and 2 μL of TK solution (TK substrate-biotin in kinase buffer [1× enzymatic buffer from HTRFKinEASE TK kit, 1 mM DTT]) was added. Then, 5 μL kinase-ATP mix (prepared in kinase buffer) was added to the wells and the plates were incubated at RT for 20 (JAK2, 3 and TYK2) to 40 (JAK1) min. For all four kinases a concentration of ATP that corresponded to the Km for ATP was used. The final concentrations of buffers, substrate, kinase and ATP were: JAK1: 50 mM Hepes buffer pH 7.0, 0.01% BSA, 10 mM MgCl2, 1 mM DTT, 7 μM ATP, 50 nM SEB, 1 μM TK Substrate-Biotin and 5 ng/well JAK1; JAK2: 50 mM Hepes buffer pH 7.0, 0.01% BSA, 5 mM MgCl2, 1 mM DTT, 4 μM ATP, 1 μM TK Substrate-Biotin and 0.1 ng/well JAK2; JAK3: 50 mM Hepes buffer pH 7.0, 0.01% BSA, 5 mM MgCl2, 1 mM DTT, 2 μM ATP, 1 μM TK Substrate-Biotin and 0.3 ng/well JAK3; TYK2: 50 mM Hepes buffer pH 7.0, 0.01% BSA, 5 mM MgCl2, 1 mM DTT, 13 μM ATP, 50 nM SEB, 1 μM TK Substrate-Biotin and 0.8 ng/well TYK2. Thereafter, the kinase reaction was stopped by adding 4 μL detection mix (final concentrations: 50 mM Hepes buffer pH 7.0, 0.01% BSA, 0.8 M KF, 20 mM EDTA, 42 nM Streptavidin-XL665 and 1:400 STK Ab Cryptate) and the plates were incubated overnight in the dark. A PerkinElmer Envision reader was used to quantify the HTRF signal using the following filters; 320 nm excitation filter, 665 nm emission filter and a 615 nm 2nd emission filter. A ratio ((665/615)×10^4) was calculated for each well.

CYP2B6 [2] = biological target: CYP2B6 (Homo sapiens (Human), UniProt P20813); assay: Reversible CYP inhibition, 2B6; assay type: in vitro ADME; conditions: up to 50 μM for Example 3
Method: as §1

CYP2C8 = CYP2C8 (Homo sapiens (Human), UniProt P10632); assay: Reversible CYP inhibition, 2C8; assay type: in vitro ADME; conditions: up to 50 μM for Example 3
Method: as §1

CYP1A2 [3] = biological target: CYP1A2 (Homo sapiens (Human), UniProt P05177); assay: Reversible CYP inhibition, 1A2; assay type: in vitro ADME
Method: as §1

CYP2C19 = CYP2C19 (Homo sapiens (Human), UniProt P33261); assay: Reversible CYP inhibition, 2C19; assay type: in vitro ADME; conditions: up to 50 μM for Example 3, up to 25 μM for Examples 644 and 641
Method: as §1

CYP [4] = assay: Time dependent CYP inhibition (TDI); assay type: in vitro ADME
Method: as §1

TYK2 = TYK2 (Homo sapiens (Human), UniProt P29597); assay: TYK2 kinase assay (HTRF); assay type: biochemical
Method: as §4

CYP1A2 gene expression = assay: CYP induction, CYP1A2 mRNA expression; assay type: in vitro ADME; conditions: Example 3: up to at least a concentration of 10 μM
Method: as §1, §2, §3

CYP1A2 [5] = assay: CYP induction, CYP1A2 mRNA expression; assay type: in vitro ADME; conditions: human, mean fold shift compared to vehicle, read-out: Fold shift in mRNA expr. (CYP 1A2); for CYP1A2 mRNA fold change vs vehicle at 0.1 μM: >2-fold indicates induction
Method: as §1, §2, §3

CYP2C9 = CYP2C9 (Homo sapiens (Human), UniProt P11712); assay: Reversible CYP inhibition, 2C9; assay type: in vitro ADME; conditions: up to 50 μM for Example 3, up to 25 μM for Examples 644 and 641
Method: as §1

CYP2B6 [6] = assay: CYP induction, CYP2B6 mRNA expression; assay type: in vitro ADME; conditions: human, mean fold shift compared to vehicle, read-out: Fold shift in mRNA expr. (CYP 2B6)
Method: as §1, §2, §3

CYP2B6 gene expression = assay: CYP induction, CYP2B6 mRNA expression; assay type: in vitro ADME; conditions: Example 3: up to at least a concentration of 10 μM; Example 644: at 10 μM
Method: as §1, §2, §3

[7] = reversible, up to 50 μM for Example 3, up to 25 μM for Examples 644 and 641, read-out: 1A2 IC50

Sequence of JAK2 (O60674 849-1124): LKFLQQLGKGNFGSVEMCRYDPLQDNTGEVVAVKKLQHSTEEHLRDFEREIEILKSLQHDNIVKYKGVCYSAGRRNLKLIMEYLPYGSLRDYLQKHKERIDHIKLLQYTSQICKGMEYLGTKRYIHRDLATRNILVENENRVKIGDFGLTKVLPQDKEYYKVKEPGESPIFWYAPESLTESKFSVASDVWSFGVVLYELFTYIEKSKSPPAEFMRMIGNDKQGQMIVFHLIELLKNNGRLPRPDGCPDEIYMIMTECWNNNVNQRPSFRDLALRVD
Sequence of TYK2 (P29597 871-1187): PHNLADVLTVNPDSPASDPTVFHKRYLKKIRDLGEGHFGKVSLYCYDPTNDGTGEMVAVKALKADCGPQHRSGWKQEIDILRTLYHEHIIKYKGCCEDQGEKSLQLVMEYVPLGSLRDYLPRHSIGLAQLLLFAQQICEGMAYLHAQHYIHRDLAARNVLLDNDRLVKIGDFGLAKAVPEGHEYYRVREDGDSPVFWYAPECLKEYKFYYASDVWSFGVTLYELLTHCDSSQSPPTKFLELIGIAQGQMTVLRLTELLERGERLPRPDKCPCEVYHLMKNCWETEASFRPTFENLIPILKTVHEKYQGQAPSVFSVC
Sequence of CYP2C9 (P11712 whole entry): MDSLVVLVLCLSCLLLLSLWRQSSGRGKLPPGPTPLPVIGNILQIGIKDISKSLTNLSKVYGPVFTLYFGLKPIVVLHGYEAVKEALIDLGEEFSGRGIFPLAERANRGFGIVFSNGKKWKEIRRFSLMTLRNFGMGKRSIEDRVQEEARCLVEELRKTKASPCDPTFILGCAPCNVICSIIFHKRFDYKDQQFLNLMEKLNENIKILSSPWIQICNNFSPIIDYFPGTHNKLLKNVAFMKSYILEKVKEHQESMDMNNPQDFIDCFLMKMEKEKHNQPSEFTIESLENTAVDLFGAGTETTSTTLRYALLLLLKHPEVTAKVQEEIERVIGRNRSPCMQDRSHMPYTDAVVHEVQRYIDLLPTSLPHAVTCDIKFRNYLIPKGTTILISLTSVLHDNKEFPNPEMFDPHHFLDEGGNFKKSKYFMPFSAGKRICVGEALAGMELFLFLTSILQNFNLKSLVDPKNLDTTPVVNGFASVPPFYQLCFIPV
Sequence of CYP2C19 (P33261 whole entry): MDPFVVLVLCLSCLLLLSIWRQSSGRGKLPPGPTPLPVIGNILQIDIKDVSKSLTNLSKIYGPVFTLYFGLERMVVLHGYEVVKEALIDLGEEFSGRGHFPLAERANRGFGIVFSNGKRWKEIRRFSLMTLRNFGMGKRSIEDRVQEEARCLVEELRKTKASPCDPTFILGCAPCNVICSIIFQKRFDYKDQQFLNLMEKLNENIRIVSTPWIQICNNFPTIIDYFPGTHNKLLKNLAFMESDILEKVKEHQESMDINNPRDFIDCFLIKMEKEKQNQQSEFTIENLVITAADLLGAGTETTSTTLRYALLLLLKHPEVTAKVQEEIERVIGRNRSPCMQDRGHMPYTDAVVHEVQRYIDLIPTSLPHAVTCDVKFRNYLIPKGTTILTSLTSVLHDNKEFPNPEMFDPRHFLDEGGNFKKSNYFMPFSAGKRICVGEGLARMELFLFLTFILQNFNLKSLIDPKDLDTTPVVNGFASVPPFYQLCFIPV
Sequence of CYP1A2 (Homo sapiens (Human), UniProt P05177) (P05177 whole entry): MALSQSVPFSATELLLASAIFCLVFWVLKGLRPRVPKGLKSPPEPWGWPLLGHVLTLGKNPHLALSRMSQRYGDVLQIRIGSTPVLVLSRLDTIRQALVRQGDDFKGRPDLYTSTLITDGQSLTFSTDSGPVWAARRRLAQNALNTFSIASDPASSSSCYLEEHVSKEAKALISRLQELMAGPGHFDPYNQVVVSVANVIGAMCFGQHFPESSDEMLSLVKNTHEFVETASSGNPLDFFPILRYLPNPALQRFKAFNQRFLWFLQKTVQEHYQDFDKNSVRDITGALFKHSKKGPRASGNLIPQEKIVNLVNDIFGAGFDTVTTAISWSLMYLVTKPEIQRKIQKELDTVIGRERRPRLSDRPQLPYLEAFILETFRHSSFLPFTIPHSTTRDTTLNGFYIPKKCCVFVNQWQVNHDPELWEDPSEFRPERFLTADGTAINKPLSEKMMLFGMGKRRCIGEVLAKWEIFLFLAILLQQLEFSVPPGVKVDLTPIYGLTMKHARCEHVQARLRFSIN
Sequence of CYP2C8 (P10632 whole entry): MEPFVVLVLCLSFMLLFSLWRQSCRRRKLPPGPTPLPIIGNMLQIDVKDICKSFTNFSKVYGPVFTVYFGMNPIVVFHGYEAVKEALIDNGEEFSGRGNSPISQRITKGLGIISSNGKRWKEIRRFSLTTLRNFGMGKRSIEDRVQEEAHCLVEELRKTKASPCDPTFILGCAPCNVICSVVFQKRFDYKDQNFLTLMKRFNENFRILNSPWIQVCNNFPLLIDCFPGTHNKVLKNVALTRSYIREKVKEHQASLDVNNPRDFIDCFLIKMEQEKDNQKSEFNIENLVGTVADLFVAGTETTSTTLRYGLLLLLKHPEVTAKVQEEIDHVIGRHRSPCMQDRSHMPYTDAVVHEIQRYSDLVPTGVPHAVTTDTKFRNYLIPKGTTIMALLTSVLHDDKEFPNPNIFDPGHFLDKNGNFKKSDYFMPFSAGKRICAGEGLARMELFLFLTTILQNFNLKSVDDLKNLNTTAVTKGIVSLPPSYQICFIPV
Sequence of CYP2B6 (Homo sapiens (Human), UniProt P20813) (P20813 whole entry): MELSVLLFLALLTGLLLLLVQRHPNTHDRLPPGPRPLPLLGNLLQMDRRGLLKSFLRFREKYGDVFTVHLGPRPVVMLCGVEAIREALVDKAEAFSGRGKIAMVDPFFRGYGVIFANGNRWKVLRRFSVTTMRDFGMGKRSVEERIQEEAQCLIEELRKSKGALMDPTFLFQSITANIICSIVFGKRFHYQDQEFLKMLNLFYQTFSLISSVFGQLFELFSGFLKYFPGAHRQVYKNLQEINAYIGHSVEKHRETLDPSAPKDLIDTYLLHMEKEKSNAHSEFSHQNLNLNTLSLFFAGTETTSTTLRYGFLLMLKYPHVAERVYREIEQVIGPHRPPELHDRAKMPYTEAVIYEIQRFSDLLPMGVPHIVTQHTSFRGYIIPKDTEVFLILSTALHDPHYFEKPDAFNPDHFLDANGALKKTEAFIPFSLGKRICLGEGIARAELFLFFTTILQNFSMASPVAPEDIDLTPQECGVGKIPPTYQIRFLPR

| SMILES | CYP3A4 mRNA fold induction vs vehicle at 5 μM (CYP3A4) | CYP3A4 mRNA fold induction vs vehicle at 20 μM (CYP3A4) | CYP3A4 mRNA fold induction vs vehicle at 50 μM (CYP3A4) | CYP3A4 induction (in words) (CYP3A4 gene expression) | EC50 (JAK2) [nM] | IC50 (CYP1A2 [3]; [7]) [nM] | IC50 (CYP2C19) [nM] | EC50 (TYK2; ATP at Km (13 μM)) [nM] | CYP1A2 mRNA fold change vs vehicle at 0.1 μM (CYP1A2 [5]) | CYP1A2 mRNA fold change vs vehicle at 1 μM (CYP1A2 [5]) | CYP1A2 mRNA fold change vs vehicle at 10 μM (CYP1A2 [5]) | IC50 (CYP2C9) [nM] | fold change in CYP2B6 mRNA expression vs vehicle at 0.1 μM (CYP2B6 [6]) | fold change in CYP2B6 mRNA expression vs vehicle at 1 μM (CYP2B6 [6]) | fold change in CYP2B6 mRNA expression vs vehicle at 10 μM (CYP2B6 [6]) | CYP2B6 induction (in words) (CYP2B6 gene expression) | other results |
| --- | --- | --- | --- | --- | --- | --- | --- | --- | --- | --- | --- | --- | --- | --- | --- | --- | --- |
| CNc1cc2c(cn1)nc([C@@H](C)O)n2[C@H]1CC[C@H](CC#N)CC1 [Example 3, trans-2-[4-[2-[(1R)-1-Hydroxyethyl]-6-(methylamino)imidazo[4,5-c]pyridin-1-yl]cyclohexyl]acetonitrile] | 1.2 | 1.5 | 2 | does not cause CYP3A4 induction up to at least a concentration of 50 μM | 171 | > 50000 | > 50000 | 32 | 0.8 | 0.7 | 0.8 | > 50000 | 1.1 | 1.5 | 1.7 | does not cause | CYP inhibition (in words) (CYP [1]): no CYP inhibition; IC50 (CYP2B6 [2]): > 50000 nM; IC50 (CYP2C8): > 50000 nM; time dependent CYP inhibition (in words) (CYP [4]): No time dependent CYP inhibition was indicated; CYP1A2 induction (in words) (CYP1A2 gene expression): does not cause |
| C[C@@H](O)c1nc2cnc3[nH]ccc3c2n1[C@H]1CC[C@H](C#N)CC1 [Example 641 of WO2011086053] | 1.8 | 2.5 | 4 | causes CYP3A4 induction at a concentration of 20 μM and above | 228 |  | > 25000 |  | 0.9 | 0.8 | 0.9 | > 25000 | 1 | 1.3 | 1.4 |  | IC50 (CYP1A2 [3]): > 25000 nM; EC50 (TYK2): 115 nM |
| C[C@@H](O)c1nc2cnc3[nH]ccc3c2n1[C@H]1CC[C@H](CC#N)CC1 [Example 644 of WO2011086053] |  |  |  | causes CYP3A4 induction at a concentration of 10 μM | 3.34 | > 25000 | > 25000 | 3.32 |  |  |  | > 25000 |  |  |  | CYP2B6 induction at a concentration of 10 μM |  |
